From publication PMC10630452, “The tumor-enriched small molecule gambogic amide suppresses glioma by targeting WDR1-dependent cytoskeleton remodeling” (Signal Transduction and Targeted Therapy, 2023)

How the values were obtained:
[1] = system: F-actin; assay: F-actin staining and G-actin/F-actin assay in T2-4 cells; assay type: cell-based; settings: 50 nM jas with 0.3 μM GA-amide
Method: F-actin isolation was performed according to the instructions of the G-actin/F-actin assay (Cytoskeleton, Inc.). Briefly, cells were lysed in LAS2 buffer (Cytoskeleton, Inc.). The lysates were centrifuged (5 min at 1000 rpm) to pellet undisrupted cells, and then 100 µl of the supernatant was ultracentrifuged at 37 °C (100,000 × g) for 1 h to separate F-actin from soluble G-actin. The F-actin pellet was solubilized by incubation in 100 μL of F-actin depolymerization buffer for 1 h. The soluble F-actin and G-actin fractions were subsequently analyzed by immunoblotting with a mouse monoclonal anti-actin antibody (Cytoskeleton, Inc.).
Representative images of three wells are shown, and the scale bar represents 500 μm. h The apoptosis assay was conducted on T2-4 cells treated with DMSO, GA-amide (0.3 μM), jas (50 nM), and jas (50 nM jas was pretreated for 12 hours) in combination with GA-amide (0.3 μM) for 4 hours. The data were presented as the mean ± SEM (n = 3) and analyzed using one-way ANOVA analysis. Statistical significance is denoted as *P <0.05, **P <0.01, and ***P <0.001.

[2] = system: subcutaneous glioma PDX; assay: Subcutaneous PDX model of glioma (GBM1); assay type: in vivo, nude mice
Method: (§1) Fig. 2 The BBB permeability and tumor suppressor ability of GA-amide compared with TMZ. GA-amide (a) or TMZ (b) concentration in the tumor area and normal brain tissue following a single injection of GA-amide (10 mg/kg, i.v.) or TMZ (10 mg/kg, i.v.). The data are presented as the means ± SEMs (n = 3). c Western blot analysis of the expression of TrkA in mouse tumor tissues (T) and normal brain tissues (N), n = 4. d Western blot analysis of glycosylated TrkA expression in human normal brain tissues (N) and glioma tissues of different grades. e Time curve of GA-amide and TMZ treatment in a cell viability assay (MTS) in T2-4, GSC2 and T12-1 cells. f–h A PDX mouse model was established, and the mice were treated with vehicle (control, n = 9), 2 mg/kg GA-amide (n = 9), 2 mg/kg GAC (n = 9) or […] TMZ (n = 8) by i.p. injection daily for 10 days. A summary photograph is presented in (f), statistical results in (g) and the body weights of mice in (h); the mean ± SEMs are shown. n.s: P ≥ 0.05, *P < 0.05, **P < 0.01 and ***P < 0.001 compared with the control group by one-way ANOVA at each time point
Male nude mice aged 5–6 weeks were selected for establishment of the in vivo glioma mouse models. For the PDX models, the tumor sample will be soaked in HBSS solution on ice and transferred from the hospital to the laboratory. Patient-related information was shown in Supplementary Table 4). For the subcutaneous PDX models, the isometric fresh GBM tumor (GBM1) specimens were implanted s.c. into the flank of a nude mouse. Then, the mice were treated with GA-amide (2 mg/kg i.p.), gambogic acid (2 mg/kg i.p.), TMZ (65 mg/kg i.p., Selleck) or vehicle after the tumors grew to 100 mm^3. The mouse body weights were measured, and tumor volumes were calculated using the formula L × W^2/2. After treatment, the xenografts were harvested and photographed.

[3] = BBB permeability assay in U87MG-SLC intracranial xenograft mice; assay type: in vivo, mouse; settings: 10 mg/kg i.v., U87MG-SLC intracranial xenograft mice
Method: as §1
Mice bearing U87MG-SLC cell intracranial xenografts were injected with GA-amide (i.v.), and tissues from the brain tumor area and normal brain tissues were collected at different times after injection. […] The diagnostic product ions for GA-amide were detected at m/z 628.3/572.2.

[4] = system: GSC2 and U87MG-SLC cells; assay: Combination of GA-amide with Trk inhibitors, cell viability; assay type: cell-based; settings: 48 hours
Method: Supplementary Fig. 5 TrkA was not the functional target for GA-amide to inhibit glioma. a Western blot analyses of the TrkA and p-TrkA expression in GSC2 and U87MG-SLC cells with GA-amide treatment for 4 hours. b Western blot analyses of the p-TrkA expression in GSC2 with GA-amide treatment for different times. c, d The combination effects of GA-amide with GW441756, a TrkA inhibitor, or with K252a, an inhibitor of Trk family in GSC2 (c) and U87MG-SLC (d) (48 hours, n = 3).

[5] = 60 mg/kg i.p. daily for 10 days

C/C1=C\[C@H](C)C[C@H](C)OC(=O)C[C@H](c2ccc(O)cc2)NC(=O)[C@@H](Cc2c(Br)[nH]c3ccccc23)N(C)C(=O)[C@H](C)NC(=O)[C@@H](C)C1 [jasplakinolide, reference compound]
effect of F-actin stabilization on GA-amide induced F-actin depolymerization, invasion inhibition and apoptosis [1]: significantly reversed

CC(C)=CCC[C@]1(C)C=Cc2c(O)c3c(c(CC=C(C)C)c2O1)O[C@]12C(=C[C@@H]4C[C@H]1C(C)(C)O[C@@]2(C/C=C(/C)C(=O)O)C4=O)C3=O [GAC, gambogic acid, reference compound]
tumor volume versus control ([2]; 2 mg/kg i.p. daily for 10 days): significantly decreased compared with those in the control group

Cn1nnc2c(C(N)=O)ncn2c1=O [TMZ, temozolomide, reference compound]
concentration in the tumor area versus the nontumor area [3]: no discernible difference in its distribution between these regions | body weight of mice [2, 5]: significantly decreased | tumor volume versus control [2, 5]: significantly decreased compared with those in the control group

COC(=O)[C@@]1(O)C[C@H]2O[C@]1(C)n1c3ccccc3c3c4c(c5c6ccccc6n2c5c31)C(=O)NC4 [K252a]
rescue of the inhibitory effect of GA-amide on GSCs [4]: neither the TrkA inhibitor GW441756 nor the Trk family inhibitor K252a[28] restored the inhibitory effect of GA-amide on GSCs

Cn1cc(/C=C2\C(=O)Nc3cccnc32)c2ccccc21 [GW441756]
rescue of the inhibitory effect of GA-amide on GSCs [4]: neither the TrkA inhibitor GW441756 nor the Trk family inhibitor K252a[28] restored the inhibitory effect of GA-amide on GSCs
